Laboratory results from patent US20230324392A1, “METHODS AND COMPOSITIONS FOR TARGETING CYTOSOLIC DSDNA SIGNALING IN CHROMOSOMALLY UNSTABLE CANCERS” (MEMORIAL SLOAN KETTERING CANCER CENTER, priority 2020, published 2023).
Several values for one entry are separate records, joined by “and”; a condition that tells them apart may be missing. Equal values may be shown once.

Legend:
[1] = test system: B16F10, 4T1, and CT26; assay: Wound scratch assay for cell migration; format: cell-based, mouse; conditions: C176 at 1 μM; all three metastatic cancer cell lines
Procedure: Wound scratch assay for cell migration: Tumor cell lines B16F10, 4T1, and CT26 were seeded in 6 well plates. When cells reached>90% confluence they were treated with 0.5 μM mitomycin C (M4287, Sigma-Aldrich, St. Louis, MO) for 2 hours, after which a wound was formed using a sterile p200 pipette tip. Thereafter cells were washed once with fresh media, following by treatment with C176 at 1 μM (Probechem, China) or DMSO control in media containing 1% FBS. Images were obtained at 0, 4, 8, and 12 hours using Olympus CKX53 microscope at 4× magnification. The wound surface area was measured and quantified using ImageJ software (MRI Wound Healing tool-dev.mri.cnrs.fr/projects/imagej-macros/wiki/Wound_Healing_Tool).

[2] = Blood chemistry of mice treated with C-176; format: in vivo, mouse; conditions: animals 1, 2
[3] = test system: B16F10, 4T1 or CT26 cells; assay: Cell proliferation assay; format: cell-based, mouse; conditions: C176 at 1 μM; 12-48 hours
Procedure: Cell proliferation assay: Cell proliferation was determined by seeding of 5×10^3 B16F10, 4T1 or CT26 cells in 6 well plates in triplicate. Cells were treated with C176 at 1 μM (Probechem, China) or DMSO control. Thereafter cells were counted in triplicate at 12, 24, 36, and 48 hours using trypan blue staining and the EVE™ automated cell counter (NanoEnTek, South Korea).

[4] = Blood counts of mice treated with C-176; format: in vivo, mouse; conditions: for NEUT: reference range 9.86-39.11; for LYMPH: reference range 48.81-83.82
[5] = test system: B16F10 cells; assay: Tail vein inoculation of B16F10 cells in C57BL/6 mice, survival; format: in vivo, mouse
Procedure: (§1) Animal metastasis studies: Animal experiments were performed in accordance with protocols approved by the MSKCC Institutional Animal Care and Use Committee. […] There was no need to randomize animals. Investigators were not blinded to group allocation. For tail vein injections, 5×10^4 4T1, 2.5×10^4 B16F10, or 10^5 CT26 cells were injected into the tail vein of 6-7-week old BALB/c (4T1 and CT26) or C57BL/6 (B16F10) mice. Metastasis was primarily assessed through overall survival. Overall survival endpoint was met when the mice died or met the criteria for euthanasia under the IACUC protocol. […] Surface lung metastases were assessed at endpoint by direct visual examination after euthanasia at which points lungs were perfused and fixed in 4% paraformaldehyde (4T1 and B16F10 experiments) or stained using India-ink (CT26 experiments). Furthermore, lung metastasis after injection of 4T1 cells was qualitatively assessed using routine hematoxylin and eosin (H&E) staining. […] Primary tumors were surgically excised on day 7 after implantation and metastatic dissemination was assessed by monitoring overall survival or on day 30 through quantification of surface lung metastases upon euthanasia. The length (L) and width (W) of the primary tumors were measured using calipers. Tumor size was calculated according to the following formula: L*W2/2. […]

[6] = test system: 4T1 cells; assay: Tail vein inoculation of 4T1 cells in BALB/c mice, survival; format: in vivo, mouse; conditions: 4T1, BALB/c, daily IP, vs vehicle
Procedure: as §1

[7] = automated differential, animals 1, 2
[8] = complete blood count, animals 1, 2
[9] = manual differential, animals 1, 2

For `O=C(Nc1ccc(I)cc1)c1ccc([N+](=O)[O-])o1` [C-176], the migration [1] was “significant reductions”, the “A/G Ratio” value [2] was 1.3 and 1.4 and the “Anion Gap” value [2] was 26 and 32. The “BASELINE CORTISOL” value [2] was 0.811 and 0.662, the “BUN/CREA Ratio” value [2] was 85.0 and 84.2 and the DBIL [2] was 0.0 mg/dL. The GGT [2] was 0 U/L, the IBIL [2] was 0.1 and the Na/K [2] was 19 and 16. For the same compound, the TCO2 [2] was 24 mEq/L and 18 mEq/L, the CREA ([2]; reference range 0.2-0.5) was 0.20 mg/dL and 0.19 mg/dL and the TBIL ([2]; reference range 0.2-0.6) was 0.1 mg/dL. The GLOB ([2]; reference range 1.7-2.2) was 2.3 g/dL and 1.9 g/dL, the ALB ([2]; reference range 2.4-4.3) was 3.1 g/dL and 2.6 g/dL and the TP ([2]; reference range 4.8-7.2) was 5.4 g/dL and 4.5 g/dL. For the same compound, the BUN ([2]; reference range 5.0-28) was 17 mg/dL and 16 mg/dL, the K ([2]; reference range 7.3-11.1) was 8.1 mEq/L and 9.7 mEq/L and the Ca ([2]; reference range 9.5-12.5) was 10.0 mg/dL and 9.9 mg/dL. For the same compound, the ALT ([2]; reference range 27-195) was 26 U/L and 32 U/L, the AST ([2]; reference range 54-77) was 134 U/L and 69 U/L and the CHOL ([2]; reference range 55-169) was 103 mg/dL and 93 mg/dL. The TRIG ([2]; reference range 67-289) was 82 mg/dL and 80 mg/dL, the ALP ([2]; reference range 105-370) was 61 U/L and 40 U/L and the CL ([2]; reference range 111-134) was 115 mEq/L and 113 mEq/L. The Na ([2]; reference range 145-181) was 157 mEq/L and 153 mEq/L, the GLU ([2]; reference range 172-372) was 205 mg/dL and 210 mg/dL and the cellular proliferation [3] was “did not impact cellular proliferation”. The BASO ([4]; automated differential, animals 1, 2, reference range 0.00-1.84) was 0% and 0.1%, the “EO#” value ([4]; automated differential, animals 1, 2, reference range 0.01-0.49) was 0.1 K/uL and 0.16 K/uL and the “MONO#” value ([4]; automated differential, animals 1, 2, reference range 0.21-1.37) was 0.22 K/uL and 0.25 K/uL. The “NEUT#” value ([4]; automated differential, animals 1, 2, reference range 0.58-3.83) was 2.98 K/uL and 4.69 K/uL, the “LYMPH#” value ([4]; automated differential, animals 1, 2, reference range 2.22-11.56) was 3.35 K/uL and 3.14 K/uL and the MONO ([4]; automated differential, animals 1, 2, reference range 3.29-14.33) was 3.3% and 3%. For the same compound, the “WBC#” value ([4]; automated differential, animals 1, 2, reference range 3.48-14.84) was 6.65 K/uL and 8.25 K/uL, the NEUT [4, 7] was 44.8% and 56.9% and the LYMPH [4, 7] was 50.4% and 38.1%. For the same compound, the EO ([4]; automated differential, animals 1, 2, reference range printed 7 0.07-4.91^) was 1.5% and 1.9%, the PDW [4, 8] was 9.9 fL and 10.3 fL and the RDW-SD [4, 8] was 29.1 fL and 29.6 fL. The RET ([4]; complete blood count, animals 1, 2, reference range 2.56-4.56) was 4.04% and 5.29%, the MPV ([4]; complete blood count, animals 1, 2, reference range 4.6-5.9) was 7 fL and 7.3 fL and the RBC ([4]; complete blood count, animals 1, 2, reference range 6.93-12.24) was 10.18 M/uL and 9.5 M/uL. The HGB ([4]; complete blood count, animals 1, 2, reference range 12.4-20.5) was 15.3 g/dL and 14.4 g/dL, the MCH ([4]; complete blood count, animals 1, 2, reference range 13.0-17.6) was 15 pg and 15.2 pg and the RDW-CV ([4]; complete blood count, animals 1, 2, reference range 16.9-23.5) was 25.4% and 24%. The MCHC ([4]; complete blood count, animals 1, 2, reference range 23.3-33.1) was 32.3 g/dL and 31.9 g/dL, the HCT ([4]; complete blood count, animals 1, 2, reference range 42.1-68.3) was 47.3% and 45.2% and the MCV ([4]; complete blood count, animals 1, 2, reference range 50.7-64.4) was 46.5 fL and 47.6 fL. The “RET#” value ([4]; complete blood count, animals 1, 2, reference range 294-444) was 411.3 K/uL and 502.6 K/uL, the PLT ([4]; complete blood count, animals 1, 2, reference range 420-1698) was 1137 K/uL and 1026 K/uL and the BAND ([4]; manual differential, animal 1) was 1%. The EO ([4]; manual differential, animals 1, 2, reference range 0.07-4.91) was 2% and 1%, the NEUT [4, 9] was 45% and 57% and the LYMPH [4, 9] was 52% and 42%. For the same compound, the “survival of tumor bearing mice” value ([5]; B16F10, C57BL/6, daily IP, vs vehicle) was “significantly prolonged survival”, the “treated group with no evidence of disease” value ([5]; B16F10-bearing animals, at 98 days) was roughly 30% and the “survival of tumor bearing mice” value [6] was “significantly prolonged survival”.
